# Experimental data as given in US20100069387A1, “IKK Inhibitors for the Treatment of Endometriosis” (priority 2005, published 2010).
# B1: rh-TBP-1: recombinant human TNFα binding protein (protein, UniProt P19438 30-211, looked up)
# extracellular domain: LVPHLGDREKRDSVCPQGKYIHPQNNSICCTKCHKGTYLYNDCPGPGQDTDCRECESGSFTASENHLRHCLSCSKCRKEMGQVEISSCTVDRDTVCGCRKNQYRHYWSENLFQCFNCSLCLNGTVHLSCQEKQNTVCTCHAGFFLRENECVSCSNCKKSLECTKLCLPQIENVKGTEDSGTT
# modifications: extracellular domain
# Tests used:
# [1] = cited from earlier work
# endometriotic lesions [2] = test: Nude mouse xenograft model of endometriosis (human endometrial tissue injected in ovarectomized nude mice); assay type: in vivo; conditions: for Lesion (% Progesterone) Compared to progesterone treated group, decrease: treatment started 10 days after tissue injection
# Protocol: Human endometrial tissue was injected in ovarectomized nude mice to establish the disease (Bruner-Tran et al 2002). In brief, endometrial biopsies obtained from normal volunteers or from endometriotic patients were cut into small pieces and cultured in the presence of estradiol for 24 h. Treated tissues, were injected either subcutaneously or intraperitoneally into ovarectomized nude mice with estradiol implant. Within 2-4 days of injection, ectopic endometriotic lesions develop in animals. Treatment with either progesterone or IKK inhibitor-5 (1-(4-{4-[4-(4-Chloro-phenyl)-pyrimidin-2-ylamino]-benzoyl}-piperazin-1-yl)-ethanone) was started 10 days following the injection of tissue. The compound was administered at a dose of 10 mg/kg and 30 mg/kg/animal for 15 days. […] Following the completion of treatment, animals were sacrificed, lesions developed from the transplanted tissue found in both subcutaneous and intraperitoneal sites, were measured (both size and number).
# The IKK inhibitor treatment had no effect on the uterine weight and size of the animals.
# endometriotic lesions [3] = conditions: control treatment; earlier work using this model; cited from earlier work
# endometriotic lesions [4] = conditions: experimental model of endometriosis; cited from earlier work
# [5] = 10 mg/kg × 15 days, listed as IKK inhibitor
# [6] = 30 mg/kg × 15 days, listed as IKK inhibitor
molecule,measurement,setting,value
C#C[C@]1(O)CC[C@H]2[C@@H]3CCC4=Cc5oncc5C[C@]4(C)[C@H]3CC[C@@]21C [Danazol],recurrence rates,[1]; after up to 4 years,40%-50%
same,patients suffering from pain with improved symptoms,[1]; endometriosis patients,66-100%
"CC(=O)N1CCN(C(=O)c2ccc(Nc3nccc(-c4ccc(Cl)cc4)n3)cc2)CC1 [IKK inhibitor-5, 1-(4-{4-[4-(4-Chloro-phenyl)-pyrimidin-2-ylamino]-benzoyl}-piperazin-1-yl)-ethanone]","Lesion size, decrease",endometriotic lesions [2]; 10 mg/kg × 15 days,90% Decrease
same,"Lesion (% Progesterone) Compared to progesterone treated group, decrease",endometriotic lesions [2]; 10 mg/kg × 15 days,125% Decrease
same,"Lesion (% Progesterone) Compared to progesterone treated group, decrease",endometriotic lesions [2]; [5],125%
same,"Lesion size, decrease",endometriotic lesions [2]; [5],90%
same,"Lesion size, decrease",endometriotic lesions [2]; 30 mg/kg × 15 days,75% Decrease
same,"Lesion (% Progesterone) Compared to progesterone treated group, decrease",endometriotic lesions [2]; 30 mg/kg × 15 days,100% Decrease
same,"Lesion (% Progesterone) Compared to progesterone treated group, decrease",endometriotic lesions [2]; [6],100%
same,"Lesion size, decrease",endometriotic lesions [2]; [6],75%
same,effect on the uterine weight and size of the animals,"endometriotic lesions [2]; nude mice, 15 days treatment",no effect
CC(=O)[C@H]1CC[C@H]2[C@@H]3CCC4=CC(=O)CC[C@]4(C)[C@H]3CC[C@]12C [progesterone],disease progression,endometriotic lesions [3],prevents disease progression
B1,size and severity of endometriotic lesions,endometriotic lesions [4],effective in reducing the size and severity of endometriotic lesions
